Read-outs that look alike come from different tables or passages of the source.
Assays:
VpBTN2 BFI–VpBTN3 BFI = test: ITC: VpBTN2 BFI binding to VpBTN3 BFI in the presence of pAg; parameters: species or system alpaca (Vicugna pacos)
Experimental: (§1) ITC binding fits were calculated using MicroCal Analysis software.
(§2) ITC experiments of HMBPP, DMAPP or IPP binding to the VpBTN3 BFI (or the preconditioned VpBTN3 BFI and VpBTN2 BFI complex) and VpBTN2 BFI (or VpBTN1 BFI) binding to VpBTN3 BFI in the presence of HMBPP, DMAPP or IPP were performed according to the same procedures as for the BTN3A1 B30.2 and BTN2A1 B30.2.

MIA PaCa-2 cells = test: Cell killing assay: cytotoxicity of Vγ9Vδ2 T cells towards pAg- or zoledronate-treated MIA PaCa-2 cells (luciferase); type: cell-based, human; details: for Bottom (best-fit value) / Top (best-fit value) / Span (best-fit value): Fig. 1b; for Bottom (best-fit value) / Top (best-fit value): log(agonist) vs. response (three parameters); for EC50: Homo sapiens
Experimental: MIA PaCa-2 cells were infected with lentivirus bearing luciferase transgene. Luciferase-positive cells were plated at 5.0 × 10^3 cells per well in 384-well plates 1 day before transfection. All plasmids were transfected into BTN2A^−/− MIA PaCa-2 (BTN2A1/BTN2A2 KO) cells using Lipofectamine 2000 reagent. […] Stable-lite luciferase (Vazyme) was added to each well and the luciferase signal was immediately measured by using the PerkinElmer EnVision microplate reader.
Percentage of lysis was calculated using the following equation: percentage of specific lysis = (maximum luciferase − experimental luciferase)/maximum luciferase × 100.

[1] = target: T1, BTN2A1 B30.2–BTN3A1 B30.2 (Homo sapiens, UniProt O00481+Q7KYR7); test: SEC–MALS of BTN2A1 B30.2–BTN3A1 B30.2 with or without HMBPP; details: listed as HMBPP
T1 construct: The BTN3A1 B30.2 domain was expressed and purified as described previously; 6xHis; made in house; host or cells: Escherichia coli BL21 (DE3) for BTN2A1 B30.2
T1 sequence (O00481 322-513 limits assumed): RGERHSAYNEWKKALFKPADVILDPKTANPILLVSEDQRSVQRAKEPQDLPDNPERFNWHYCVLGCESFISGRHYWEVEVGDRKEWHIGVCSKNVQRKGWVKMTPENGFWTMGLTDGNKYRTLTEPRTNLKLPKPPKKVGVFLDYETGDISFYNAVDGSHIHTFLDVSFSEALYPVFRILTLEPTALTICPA
T1 sequence (Q7KYR7 316-527 limits assumed): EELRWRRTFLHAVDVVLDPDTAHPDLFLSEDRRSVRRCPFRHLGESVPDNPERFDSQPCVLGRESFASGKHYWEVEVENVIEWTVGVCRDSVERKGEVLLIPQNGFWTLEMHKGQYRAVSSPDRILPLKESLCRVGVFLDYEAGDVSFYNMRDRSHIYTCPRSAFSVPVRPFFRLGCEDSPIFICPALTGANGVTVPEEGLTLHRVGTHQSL
Experimental: SEC–MALS experiments were performed using the Wyatt Dawn Heleos II multiangle light-scattering detector (Wyatt Technology) coupled to an AKTA Purifier UPC10 FPLC protein purification system and the Superdex 200 size-exclusion column (GE Healthcare). Protein molecular masses of the individual peaks observed in the size-exclusion chromatograms were analysed by static light scattering in conjunction with their corresponding refractive indices, using an online refractometer connected downstream of the static light scattering detector (Wyatt Optilab rEX). The proteins were prepared at 5 mg ml^−1 in a buffer (20 mM HEPES pH 7.5, 150 mM NaCl). HMBPP was prepared in 0.5 mM. The experiments were performed with a running buffer (20 mM HEPES pH 7.5, 150 mM NaCl) at a flow rate of 0.5 ml min^−1. A standard value of the refractive index, dn/dc = 0.185 ml g^−1, was used for all proteins.

BTN3A3(R351H) B30.2 = target: T2, BTN3A3(R351H) B30.2 (Homo sapiens, UniProt O00478); test: ITC: HMBPP binding to BTN3A3(R351H) B30.2
T2 construct: the B30.2 domain of this active mutant (BTN3A3(R351H))
T2 sequence (O00478 322-518 R381H): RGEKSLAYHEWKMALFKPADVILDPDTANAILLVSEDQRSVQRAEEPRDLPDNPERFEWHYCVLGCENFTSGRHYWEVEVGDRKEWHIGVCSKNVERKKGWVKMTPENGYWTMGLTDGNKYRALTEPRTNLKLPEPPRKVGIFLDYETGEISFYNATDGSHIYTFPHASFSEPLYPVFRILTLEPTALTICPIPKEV
Experimental: as §1

[2] = target: T3, BTN2A1 B30.2–BTN3A1 B30.2 (Homo sapiens, UniProt O00481+Q7KYR7, R449A/R469A); test: ITC: BTN2A1 B30.2 (and mutants) binding to BTN3A1 B30.2 in the presence of pAg
T3 construct: The BTN3A1 B30.2 domain was expressed and purified as described previously; 6xHis; made in house; host or cells: Escherichia coli BL21 (DE3) for BTN2A1 B30.2
T3 sequence (O00481 322-513): as the sequence (O00481 322-513 limits assumed) above
T3 sequence (Q7KYR7 316-527 R449A/R469A): as the sequence (Q7KYR7 316-527 limits assumed) above, with R134A, R154A counted along it
Experimental: as §1
For the experiments testing the binding of BTN2A1/BTN2A2 B30.2 domain (including their mutants) to the BTN3A1 B30.2 domain with or without HMBPP, BTN3A1 B30.2 (100 µM) and HMBPP (300 µM) were incubated in the buffer at a 1:3 ratio and loaded into the sample cell, and the injection syringe was filled with the buffer containing 1 mM BTN2A1/BTN2A2 B30.2 (including their mutants).

VpBTN3 BFI = VpBTN3 BFI (Vicugna pacos, UniProt A0A345DF50); test: ITC: pAg binding to VpBTN3 BFI; parameters: species or system alpaca (Vicugna pacos); details: ITC; read-out: KD, pAg binding to VpBTN3 intracellular domain (BFI)
VpBTN3 BFI, sequence (A0A345DF50 entry or part of it): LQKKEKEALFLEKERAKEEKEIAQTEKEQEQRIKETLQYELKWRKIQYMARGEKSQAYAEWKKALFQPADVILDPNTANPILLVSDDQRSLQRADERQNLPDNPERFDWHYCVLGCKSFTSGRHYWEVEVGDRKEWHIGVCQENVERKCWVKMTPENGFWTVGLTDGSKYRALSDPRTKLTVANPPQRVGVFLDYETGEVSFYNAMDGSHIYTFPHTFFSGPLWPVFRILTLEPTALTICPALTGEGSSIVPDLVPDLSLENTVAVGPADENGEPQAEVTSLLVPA
Experimental: (§3) ITC experiments were performed using the MicroCal PEAQ-ITC instrument (GE Healthcare) at 25 °C. We used an initial injection of 0.4 μl followed by 19 injections (2 µl each) at 150 s time intervals. ITC binding fits were calculated using MicroCal Analysis software. The samples were prepared using a buffer (20 mM HEPES pH 7.5, 150 mM NaCl).
as §2

VpBTN1 BFI–VpBTN3 BFI = test: ITC: VpBTN1 BFI binding to VpBTN3 BFI in the presence of pAg; parameters: species or system alpaca (Vicugna pacos)
Experimental: as §3, §2

Vγ9Vδ2 T cells = details: cited from earlier work

C/C(=C\COP(=O)(O)OP(=O)(O)O)CO [Compound 1, (E)-4-hydroxy-3-methylbut-2-en-1-yl diphosphate]
Binding of VpBTN2 mutants (R475A, T508M and V509A) to VpBTN3 in the presence of HMBPP (VpBTN2 BFI–VpBTN3 BFI): abolished its binding
Bottom (best-fit value) (MIA PaCa-2 cells; 2A1 KO cells): 2.135
Top (best-fit value) (MIA PaCa-2 cells; 2A1 KO cells): 50.59
Span (best-fit value) (MIA PaCa-2 cells; 2A1 KO cells, three-parameter fit): 48.45
Bottom (best-fit value) (MIA PaCa-2 cells; 2A1 WT cells): 19.47
Top (best-fit value) (MIA PaCa-2 cells; 2A1 WT cells): 76.92
Span (best-fit value) (MIA PaCa-2 cells; 2A1 WT cells, three-parameter fit): 57.45
EC50 (MIA PaCa-2 cells; MIA PaCa-2, BTN2A1 WT MIA PaCa-2 cells, read-out: EC50 for HMBPP-mediated MIA PaCa-2 cell killing): 6.5e-09 M
EC50 (MIA PaCa-2 cells; MIA PaCa-2, BTN2A1−/− (KO) MIA PaCa-2 cells, read-out: EC50 for HMBPP-mediated MIA PaCa-2 cell killing): 3.6e-05 M
EC50 (MIA PaCa-2 cells; MIA PaCa-2, Fig. 1b, 2A1 KO cells, log(Concentration)/M, three-parameter fit, read-out: LogEC50 (converted)): 3.6e-05 M
EC50 (MIA PaCa-2 cells; MIA PaCa-2, Fig. 1b, 2A1 KO cells, three-parameter fit, read-out: EC50): 3.6e-05 M
EC50 (MIA PaCa-2 cells; MIA PaCa-2, Fig. 1b, 2A1 WT cells, log(Concentration)/M, three-parameter fit, read-out: LogEC50 (converted)): 6.5e-09 M
EC50 (MIA PaCa-2 cells; MIA PaCa-2, Fig. 1b, 2A1 WT cells, three-parameter fit, read-out: EC50): 6.5e-09 M
EC50 (MIA PaCa-2 cells; MIA PaCa-2, Supplementary Table 4, read-out: EC50 (M) for MIA PaCa-2 cell lysis mediated by HMBPP analogs and Vγ9Vδ2 T cells): 3.87e-09 M
Molecular mass of BTN2A1 B30.2–BTN3A1 B30.2 oligomer formed on addition of HMBPP (trimer) [1]: 78.7 kDa
Kd (BTN3A3(R351H) B30.2): 10.9 µM
Binding of 2A1 B30.2 R449A/R469A to 3A1 B30.2 in the presence of HMBPP [2]: does not bind
Kd (VpBTN3 BFI): 1.37 µM
VpBTN1 binding to VpBTN3 in the presence of pAg (VpBTN1 BFI–VpBTN3 BFI): does not bind
EC50 for Vγ9Vδ2 T cell activation (Vγ9Vδ2 T cells): picomolar range
